# Legend:
# [1] = Test 3-1: metabolic stability test in human hepatic microsome; type: in vitro ADME; details: microsome 0.1 mg/mL, test compound 0.1 μmol/L, 37° C., 30 minutes
# In short: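 Test compound at 0.1 μmol/L incubated 30 min at 37° C with human liver microsomes 0.1 mg/mL and NADPH 3.2 mmol/L in 25 mmol/L phosphate buffer, pH 7.4. Residual compound measured by LC-MS; stability (mL/min/mg protein) = −LN(residual ratio)/30/0.1.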
# [2] = Test 10: hepatotoxic risk, dansyl glutathione (dGSH) trapping assay; type: in vitro ADME; details: human hepatic microsome, 37° C., 60 minutes; N.D. means below detection limit
# Method: Test 10: Evaluation of Hepatotoxic Risk (Dansyl Glutathione (dGSH) Trapping Assay)
# The present compound was metabolized in hepatic microsome, and from the resulted metabolite, reactive metabolite which reacts with dancyl glutathione (dGSH) was detected and quantified as the following method. Measurement was carried out with a screening robot (Tecan) for metabolic reaction, and with a fluorescence detection UPLC system (Waters) for metabolite-dGSH binding concentration.
# The present compound was dissolved in DMSO to prepare 10 mmol/L test compound solution. 7.6 mL of potassium phosphate buffer (500 mmol/L, pH 7.4), 1.9 mL of human hepatic microsome (Xenotech, 20 mg protein/mL), and 1.27 mL of pure water were mixed to prepare a microsome solution. To 3.78 mL of the microsome solution was added 0.67 mL of pure water to prepare a microsome (dGSH(−)) solution. To 6.48 mL of the microsome solution was added 1.14 mL of the dGSH solution (20 mmol/L) to prepare a microsome (dGSH(+)) solution. […] 33 mg of tris(2-carboxyethyl)phosphine (TECP) was dissolved in 115 mL of methanol to prepare a reaction stop solution.
# 12 μL of the test compound solution was mixed with 388 μL of pure water, and the mixture was dispensed in 50 μL each into 6 wells of a 96-well plate. […] To the “reaction group” and “unreacted group” was added the microsome (dGSH(+)) solution, and to the “dGSH-free group” was added the microsome (dGSH(−)) solution in 50 μL each. To the “reaction group” and “dGSH-free group” was added to the cofactor solution, and to the “unreacted group” was added pure water in 50 μL each. After incubated at 37° C. for 60 minutes, the reaction stop solution was added in 450 μL each to stop the reaction. […]
# Metabolite-dGSH binding concentration was measured by the following conditions, using a fluorescence detection UPLC system. […]
# Fluorescence intensity was corrected with the composition of organic solvent at the time of elution because fluorescence intensity changes depending on the composition of organic solvent.
# hERG channel = hERG channel (Homo sapiens (Human), UniProt Q12809); assay: Test 5: inhibitory activity for hERG channel (whole cell patch clamp, hERG-CHO cells); type: cell-based; details: for IC50: hERG-CHO cells, auto patch clamp; for hERG inhibitory IC50 (nmol/L)/5-HT2A Ki (nmol/L) / hERG inhibitory IC50 (nmol/L)/5-HT7 Ki (nmol/L): ratio
# hERG channel, sequence (Q12809 whole entry): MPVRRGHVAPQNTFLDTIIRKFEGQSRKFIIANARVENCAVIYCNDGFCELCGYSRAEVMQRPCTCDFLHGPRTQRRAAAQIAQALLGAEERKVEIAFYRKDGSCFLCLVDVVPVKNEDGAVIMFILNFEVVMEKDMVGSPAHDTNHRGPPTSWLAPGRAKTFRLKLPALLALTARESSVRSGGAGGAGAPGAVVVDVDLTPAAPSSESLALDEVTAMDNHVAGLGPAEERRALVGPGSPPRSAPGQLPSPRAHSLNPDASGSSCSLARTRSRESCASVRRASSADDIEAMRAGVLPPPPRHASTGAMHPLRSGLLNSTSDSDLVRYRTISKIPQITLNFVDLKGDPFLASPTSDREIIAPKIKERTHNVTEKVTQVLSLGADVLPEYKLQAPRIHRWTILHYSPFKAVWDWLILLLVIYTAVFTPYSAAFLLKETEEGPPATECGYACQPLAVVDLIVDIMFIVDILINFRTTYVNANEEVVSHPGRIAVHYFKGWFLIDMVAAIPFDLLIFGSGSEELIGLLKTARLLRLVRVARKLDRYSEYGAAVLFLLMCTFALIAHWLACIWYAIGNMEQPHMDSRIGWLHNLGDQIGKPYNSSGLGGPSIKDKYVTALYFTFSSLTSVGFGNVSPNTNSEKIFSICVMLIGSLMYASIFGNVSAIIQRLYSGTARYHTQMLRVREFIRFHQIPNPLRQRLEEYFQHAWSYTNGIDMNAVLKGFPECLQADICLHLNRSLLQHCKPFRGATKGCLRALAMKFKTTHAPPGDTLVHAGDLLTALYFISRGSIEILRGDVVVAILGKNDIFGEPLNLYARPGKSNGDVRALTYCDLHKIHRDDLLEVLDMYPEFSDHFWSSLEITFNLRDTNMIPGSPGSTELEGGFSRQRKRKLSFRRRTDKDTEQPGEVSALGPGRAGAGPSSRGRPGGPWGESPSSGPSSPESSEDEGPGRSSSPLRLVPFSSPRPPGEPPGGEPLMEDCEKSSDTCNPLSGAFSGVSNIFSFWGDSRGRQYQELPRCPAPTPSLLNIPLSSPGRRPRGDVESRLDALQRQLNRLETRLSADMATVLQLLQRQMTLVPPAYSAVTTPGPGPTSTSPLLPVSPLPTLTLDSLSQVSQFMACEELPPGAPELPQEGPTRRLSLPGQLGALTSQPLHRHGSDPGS
# In short: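 Automated whole-cell patch clamp on CHO cells stably expressing hERG (IKr), pulses every 15 s. Each compound applied at 4 incremental concentrations. Value based on mean peak tail current from the last 3 stimulations at each concentration.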
# human 5-HT7 receptor [3] = biological target: T1, human 5-HT7 receptor (Homo sapiens (Human), UniProt P34969); assay: Test 2: antagonist activity for human 5-HT7 receptor (aequorin luminescence, CHO-K1 cells); type: cell-based; details: Gα16
# T1 sequence (P34969 whole entry): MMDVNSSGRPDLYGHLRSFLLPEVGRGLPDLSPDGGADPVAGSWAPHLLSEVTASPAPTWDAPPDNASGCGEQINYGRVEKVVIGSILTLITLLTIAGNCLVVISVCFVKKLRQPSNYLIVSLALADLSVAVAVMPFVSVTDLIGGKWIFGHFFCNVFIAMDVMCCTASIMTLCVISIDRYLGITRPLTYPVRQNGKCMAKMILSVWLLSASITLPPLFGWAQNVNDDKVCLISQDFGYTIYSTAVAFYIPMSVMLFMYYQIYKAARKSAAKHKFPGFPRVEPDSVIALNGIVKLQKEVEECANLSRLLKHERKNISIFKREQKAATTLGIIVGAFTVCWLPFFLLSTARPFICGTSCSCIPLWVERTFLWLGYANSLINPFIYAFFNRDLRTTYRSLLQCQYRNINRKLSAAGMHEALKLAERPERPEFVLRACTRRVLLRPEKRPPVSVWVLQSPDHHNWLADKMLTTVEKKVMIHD
# In short: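 CHO-K1 cells transiently co-expressed aequorin, Gα16 and the respective receptor. They were cultured overnight at 37 °C, then held 2 h at room temperature before compound addition. Luminescence changes were recorded, and inhibition was expressed against wells given 10 μmol/L endogenous ligand (set as 100%).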
# [4] = Test 4: predictive test of human half life; details: calculated from rat distribution volume, serum unbound fraction and Test 3-2 stability
# Method: Test 4: Predictive Test of Human Half Life
# The present compound was intravenously administered to a rat as an aqueous solution of 0.01 mol/L hydrochloric acid. Blood was collected on 5 minutes, 15 minutes, 30 minutes, 1 hour, 2 hours, 4 hours, 6 hours, and 24 hours after the administration. Plasma was obtained from the collected blood, the drug concentration in plasma was measured by LC-MS, and the distribution volume of rat was calculated from the transition of the concentration.
# The unbound fraction rate of the present compound in human or rat serum was measured by equilibrium dialysis method.
# The half-life in human was calculated according to the following formula using the results of the distribution volume of rat, the unbound fraction rate in human or rat serum, and the metabolic stability in human hepatic microsome obtained in Test 3-2.
# [5] = Test 3-2: metabolic stability test in human hepatic microsome; type: in vitro ADME; details: microsome 0.5 or 1.0 mg/mL, test compound 0.1 μmol/L, 30 or 60 minutes
# Method: Test 3-2: Metabolic Stability Test in Human Hepatic Microsome
# For more accurate evaluation of the metabolic stability in human hepatic microsome, the metabolic stability of the present compound in human hepatic microsome was evaluated at an appropriate concentration of human hepatic microsome as mentioned below. Human hepatic microsome was obtained from Xenontech. Human hepatic microsome, NADPH, and each test compound were mixed in 25 mmol/L phosphate buffer solution (pH 7.4) to reach the following concentrations as shown below, and the mixture was incubated at 37° C. for 60 minutes. • Human hepatic microsome: 0.5 or 1.0 mg/mL • NAPDH: 3.2 mmol/L • Test compound: 0.1 μmol/L
# The residual ratio of a test compound in each sample after 30 or 60 minutes was measured by LC-MS, and the metabolic stability in human hepatic microsome was calculated from the following formula. Metabolic stability in human hepatic microsome (mL/min/mg protein)=−LN (residual ratio)/reaction time/concentration of human hepatic microsome
# [6] = Test 9: intracerebral transferability in rats; type: in vivo; details: brain and plasma (unbound); SD or WKY rat, subcutaneous or oral, 0.5, 1 or 2 hours; unbound brain/plasma ratio
# Method: In this test, intracerebral transferability of the present compound was evaluated by the following method. The present compounds were subcutaneously administered as a solution in saline, or orally administered as a suspension in methyl cellulose to a 7-week-old SD or WKY rat. Plasma and brain were collected on 0.5 hour, 1 hour, or 2 hours after the administration in order to measure the drug concentrations in plasma and brain by LC-MS.
# Binding rates of the present compound to plasma and brain protein were measured by equilibrium dialysis method.
# Kp,uu,brain (unbound drug concentration ratio between brain/plasma) can be calculated by applying the compound concentrations in plasma and brain and the binding rates to plasma and brain protein obtained from the above test into the following formula. Kp,uu,brain=(Compound concentration in brain×(100−Binding rate to brain protein (%))/100)/(Compound concentration in plasma×(100−Binding rate to plasma protein (%))/100)
# human 5-HT7 receptor [7] = biological target: T1, human 5-HT7 receptor; assay: Test 1: binding activity for human 5-HT7 receptor ([3H]SB-269970, CHO cell membrane fraction); details: [3H]SB-269970, room temperature 60 minutes
# Method: (§1) Ki value was evaluated from dissociation constant which was calculated from saturated binding tests, and a substrate concentration, and it was used as an index for binding affinity.
# human 5-HT2A receptor [8] = biological target: T2, human 5-HT2A receptor (Homo sapiens (Human), UniProt P28223); assay: Test 2: antagonist activity for human 5-HT2A receptor (aequorin luminescence, CHO-K1 cells); type: cell-based; details: Gα16
# T2 sequence (P28223 whole entry): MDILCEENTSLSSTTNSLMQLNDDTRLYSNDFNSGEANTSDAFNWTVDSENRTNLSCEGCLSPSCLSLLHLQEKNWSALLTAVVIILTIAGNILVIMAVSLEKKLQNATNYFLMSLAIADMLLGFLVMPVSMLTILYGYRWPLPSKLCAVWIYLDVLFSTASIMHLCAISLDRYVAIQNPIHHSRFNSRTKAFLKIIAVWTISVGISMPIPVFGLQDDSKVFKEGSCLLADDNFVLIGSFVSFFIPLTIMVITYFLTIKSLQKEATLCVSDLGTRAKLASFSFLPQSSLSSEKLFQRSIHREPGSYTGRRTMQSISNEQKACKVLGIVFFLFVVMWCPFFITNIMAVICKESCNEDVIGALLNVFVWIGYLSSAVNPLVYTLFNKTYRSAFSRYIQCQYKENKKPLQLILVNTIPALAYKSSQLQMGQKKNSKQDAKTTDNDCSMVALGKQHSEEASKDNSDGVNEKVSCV
# Method: Test 2: Evaluation of Antagonist Activity for Human 5-HT2A Receptor and Human 5-HT7 Receptor
# Aequorin, Gα 16 protein, and each receptor were transiently expressed in CHO-K1 cells (Chinese hamster ovary). The cells were cultivated in a CO2 incubator at 37° C. overnight, seeded into a 384-well plate, and stood at room temperature for 2 hours. Each compound dissolved in DMSO was added thereto, and changes in luminescence were measured by FDSS/μCELL drug discovery screening support system (Hamamatsu Photonics K.K.). As for antagonist activity, inhibitory activity of each compound was calculated by setting the luminescence level of wells to which 10 μmol/L endogenous ligand was added as 100%.
# human D2 receptor = human D2 receptor (Homo sapiens (Human), UniProt P14416); assay: Test 1: binding activity for human D2 receptor ([3H]Spiperone, CHO cell membrane fraction); details: for Ki: [3H]Spiperone, room temperature 60 minutes; for D2 Ki/5-HT2A Ki / D2 Ki/5-HT7 Ki: selectivity ratio
# human D2 receptor, sequence (P14416 whole entry): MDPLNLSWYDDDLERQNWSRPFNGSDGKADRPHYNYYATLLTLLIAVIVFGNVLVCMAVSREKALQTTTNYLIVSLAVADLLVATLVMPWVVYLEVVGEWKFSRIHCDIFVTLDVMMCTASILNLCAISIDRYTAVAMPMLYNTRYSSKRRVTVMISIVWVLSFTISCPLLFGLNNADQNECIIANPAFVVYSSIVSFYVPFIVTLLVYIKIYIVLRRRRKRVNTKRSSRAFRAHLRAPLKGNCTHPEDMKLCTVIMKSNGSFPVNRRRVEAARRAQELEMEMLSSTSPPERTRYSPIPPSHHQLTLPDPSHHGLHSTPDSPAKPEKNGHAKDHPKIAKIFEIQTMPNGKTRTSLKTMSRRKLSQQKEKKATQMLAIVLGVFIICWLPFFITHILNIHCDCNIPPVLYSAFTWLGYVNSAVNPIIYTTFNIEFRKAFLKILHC
# Method: as §1
# human 5-HT2A receptor [9] = biological target: T2, human 5-HT2A receptor; assay: Test 1: binding activity for human 5-HT2A receptor ([3H]Ketanserin, CHO cell membrane fraction); details: room temperature 60 minutes
# Method: as §1
Compound,Metabolic stability in human hepatic microsome [1] [mL/min/mg protein],Metabolite-dGSH binding concentration [2] [µM],IC50 (hERG channel) [µM],IC50 (human 5-HT7 receptor [3]) [nM],Predicted half-life [4] [h],Metabolic stability in human hepatic microsome [5] [mL/min/mg protein],Kp uu at 2 h [6],Ki (human 5-HT7 receptor [7]) [nM],IC50 (human 5-HT2A receptor [8]) [nM],hERG inhibitory IC50 (nmol/L)/5-HT2A Ki (nmol/L) (hERG channel),hERG inhibitory IC50 (nmol/L)/5-HT7 Ki (nmol/L) (hERG channel),Ki (human D2 receptor) [nM],Ki (human 5-HT2A receptor [9]) [nM],D2 Ki/5-HT2A Ki (human D2 receptor),D2 Ki/5-HT7 Ki (human D2 receptor)
CCN(CCN1CCC(c2noc3cc(F)c(C)cc23)CC1)C(=O)[C@H](C)O [Example 13],0.054,0.214,2.9,81,–,–,–,–,–,–,–,–,–,–,–
"CCN(CCN1CCC(c2noc3cc(F)ccc23)CC1)C(=O)CCO [Example 17, N-Ethyl-N-{2-[4-(6-fluoro-1,2-benzoisoxazol-3-yl)piperidin-1-yl]ethyl}-3-hydroxypropanamide]",<0.05,–,2.8,66,27,0.0025,–,–,–,–,–,–,–,–,–
"CCN(CCN1CCC(c2noc3cc(F)ccc23)CC1)C(=O)C(O)COC (stereo not drawn) [Example 18, N-Ethyl-N-{2-[4-(6-fluoro-1,2-benzoisoxazol-3-yl)piperidin-1-yl]ethyl}-2-hydroxy-3-methoxypropanamide]",<0.05,–,4.1,72,–,–,0.56,3.7,58,1637,1097,198,2.5,–,–
CCN(CCN1CCC(c2noc3cc(F)ccc23)CC1)C(=O)C1(O)CC1 [Example 24],<0.05,7.645,5.5,41,–,–,–,–,7,5203,4988,–,–,–,–
"CCN(CCN1CCC(c2noc3cc(F)ccc23)CC1)S(=O)(=O)CCO [Example 51, N-Ethyl-N-{2-[4-(6-fluoro-1,2-benzoisoxazol-3-yl)piperidin-1-yl]ethyl}-2-hydroxyethane-1-sulfonamide]",<0.05,–,6.9,62,6,0.016,–,1.9,–,–,–,309,–,–,–
CCN(CCN1CCC(c2noc3cc(F)ccc23)CC1)S(=O)(=O)C(C)CO (stereo not drawn) [Example 52],–,–,–,177,–,–,–,333,946,–,–,> 10000,298,>34,>30
"CCN(CCN1CCC(c2noc3cc(F)ccc23)CC1)C(=O)C(O)CNC(C)=O (stereo not drawn) [Example 71, 3-Acetamide-N-ethyl-N-{2-[4-(6-fluoro-1,2-benzoisoxazol-3-yl)piperidin-1-yl]ethyl}-2-hydroxypropanamide]",<0.05,0.132,–,–,–,–,–,–,–,>4452,–,–,–,99,36

# From patent publication US11339151B2, “Aliphatic acid amide derivative” (Sumitomo Dainippon Pharma Co., Ltd., priority 2019, dated 2022)
